P50 and P50 increase data for four compounds are collected here from US20130190524A1, “CYCLITOLS AND THEIR DERIVATIVES AND THEIR THERAPEUTIC APPLICATIONS” (UNIVERSITE DE STRASBOURG, priority 2006, published 2013).

One assay deals with T1, free hemoglobin (Hb) (Homo sapiens, UniProt P68871).
T1 construct: the cells were hemolysed by addition of 2 volumes of cold distilled water; tissue EFS-Alsace; host or cells: red blood cell concentrate, hemolysed, stroma removed, passed over Sephadex G-25
Nature of the assay: P50 (oxygen equilibrium curve, Hemox Analyzer) on free hemoglobin. In kind it is biochemical. The following applies: blood matrix Hb, free hemoglobin 100 μM, pH 7.4, 37° C.; for P50: effector 2 mM (effector/Hb ratio 20), n=3; for P50 increase: versus P50 control, effector 2 mM. The method, then: (§1) Some of the compounds described herein were tested for P50 on free hemoglobin (Hb) as well as human whole blood (WB) as 120 mM solutions. The hemoglobin solution was prepared from red blood cells concentrate (EFS-Alsace) by washing three times with 1 volume of saline (1500×g, 10 min), the cells were hemolysed by addition of 2 volumes of cold distilled water. After centrifugation (7000×g, 30 min) for stroma removal, 5 ml of the clear hemoglobin solution were placed on a 2.5 cm×30 cm column of Sephadex G-25 equilibrated with 0.1 M sodium chloride+10^−5 M EDTA. The protein was eluted with the same solution at a rate of about 20 ml/h [Benesch, R.; Benesch, R. E. and Yu, C. I. Reciprocal binding of oxygen and diphosphoglycerate by human hemoglobin. Proc. Natl. Acad. Sci. USA (1968) 59, 526-532].
The allosteric modulation of the effectors was measured by the change in p50, the partial pressure of oxygen for half-saturation. myo-Inositol hexaphosphate (myo-1HP) was purchased from Sigma. Oxygen equilibrium curves (OEC) were carried out with the Hemox Analyzer (TCS Scientific Co.) under the following conditions: pH 7.4, 135 mM NaCl, 5 mM KCl and 30 mM TES (N-[tris(hydroxymethyl)methyl]-2-aminoethanesulfonic acid) buffer at 37° C. The concentration of free hemoglobin was 100 μM (577 nm, ε=58.4 mM^−1 cm^−1 per tetramer) and the final concentration of the allosteric effector in the cuvette was 2 mM resulting in an effector/Hb ratio of 20.

For the next assay, the system named is human whole blood (WB). Nature of the assay: P50 (oxygen dissociation curve, Hemox Analyzer) on human whole blood. In kind it is cell-based. Conditions: blood matrix WB, 120 mM compound solution, 1:1 with whole blood; for P50: incubated two hours at 37° C., n=3; for P50 increase: versus P50 control, two hours at 37° C. How it is done:
as §1
Human blood was freshly withdrawn in heparinized tubes. The pH of the compound solutions was adjusted to approximately 7.0 and whole blood volumes at 1:1 ratios where incubated individually for two hours at 37° C. with the above compounds. Following, incubation, blood cells were washed 3 times with Bis-Tris-buffer. The measurement of oxygen dissociation curves was made in a Hemox-Analyzer instrument (TCS Scientific Corp.) A summary of P50 values for whole blood induced by the compounds is presented in Table 1.

T1 sequence (P68871 2-147 limits assumed): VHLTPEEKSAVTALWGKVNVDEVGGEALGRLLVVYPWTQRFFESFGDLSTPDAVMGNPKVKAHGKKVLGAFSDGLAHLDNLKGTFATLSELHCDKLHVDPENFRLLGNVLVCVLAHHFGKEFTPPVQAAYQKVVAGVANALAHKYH
T1 sequence (P69905 2-142 partner limits assumed): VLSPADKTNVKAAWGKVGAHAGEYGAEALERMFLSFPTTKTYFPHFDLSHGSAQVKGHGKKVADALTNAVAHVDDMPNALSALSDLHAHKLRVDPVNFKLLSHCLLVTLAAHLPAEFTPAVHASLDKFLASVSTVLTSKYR

`O=P(O)(O)O[C@H]1[C@H](OP(=O)(O)O)[C@@H](OP(=O)(O)O)[C@H](OP(=O)(O)O)[C@@H](OP(=O)(O)O)[C@H]1OP(=O)(O)O` [myo-IHP, myo-Inositol hexaphosphate, reference compound]: on free hemoglobin (Hb), the P50 amounted to 48.37 ± 3.71 Torr and the P50 increase was found to be 282%.
Regarding `O[C@H]1[C@H](O)[C@@H](O)[C@H](O)[C@@H](O)[C@H]1O` [myo-Inositol (Compound 7, Scheme 6)], at free hemoglobin (Hb), the P50 amounted to 27.43 ± 1.07 Torr and the P50 increase was 158%.
Turning to “Hexasodium scyllo-inositol 1,2:3,4:5,6-trispyrophosphate [scyllo-ITPP (Compound 4, Scheme 5)]”, the values for the P50 on free hemoglobin (Hb) and in the assay with human whole blood (WB) were 23.02 ± 1.83 Torr and 34.10 ± 1.81 Torr, respectively. Also, the values for the P50 increase at free hemoglobin (Hb) and in the assay on human whole blood (WB) were 127% and 18%, respectively.
The matching figures for `O[C@H]1[C@H](O)[C@@H](O)[C@H](O)[C@@H](O)[C@H]1O` [myo-Inositol (Compound 5, Scheme 6)]: 27.25 ± 0.14 Torr, 35.53 ± 1.43 Torr, 148% and 23%.
